US6630464B1, “Cyclin dependent kinase (CDK)4 inhibitors and their use for treating cancer” (The United States of America as represented by the …, priority 1997, dated 2003)
pIC50: −log10 of the molar value. Like-named read-outs stand apart in the source and are kept apart here. Each block holds one compound with its values, some of them ahead of it.

Experiments:
[1] = molecular target: CDK4:cyclin D1 (Homo sapiens, UniProt P11802); assay: In vitro kinase assay, CDK4:cyclin D1, GST-Rb substrate; conditions: for CDK4 kinase inhibitory potency compared with parent compounds: parents 3-ATA and Compound 6
Chain of CDK4:cyclin D1 (P11802 whole entry): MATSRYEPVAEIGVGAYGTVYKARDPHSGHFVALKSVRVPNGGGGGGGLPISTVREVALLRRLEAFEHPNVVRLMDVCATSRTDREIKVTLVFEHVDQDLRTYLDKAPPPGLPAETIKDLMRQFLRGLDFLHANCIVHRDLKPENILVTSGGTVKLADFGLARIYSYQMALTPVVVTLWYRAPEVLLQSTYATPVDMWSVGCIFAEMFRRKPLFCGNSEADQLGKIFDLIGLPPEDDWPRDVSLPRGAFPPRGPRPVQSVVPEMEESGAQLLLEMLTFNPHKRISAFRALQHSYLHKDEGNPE
Chain of CDK4:cyclin D1 (P24385 whole entry partner): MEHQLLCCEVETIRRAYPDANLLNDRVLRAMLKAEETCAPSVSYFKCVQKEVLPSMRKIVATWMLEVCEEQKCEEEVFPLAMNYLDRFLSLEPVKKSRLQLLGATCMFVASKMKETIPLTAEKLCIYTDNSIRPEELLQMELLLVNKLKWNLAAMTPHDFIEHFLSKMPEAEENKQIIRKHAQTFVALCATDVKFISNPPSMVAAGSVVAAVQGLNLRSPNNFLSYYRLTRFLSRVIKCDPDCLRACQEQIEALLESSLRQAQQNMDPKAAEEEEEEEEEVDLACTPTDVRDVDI
Description: In vitro kinase assay. Seventy-two hours after infection of 1×10^7 Sf9 cells with baculovirus containing a human CDK gene and/or a cyclin gene, cells were lysed in 250 μl of lysis buffer [50 mM HEPES (pH 7.5), 10 mM MgCl2, 1 mM DTT, 5 ig/ml of aprotinin, 5 μg/ml of leupeptin, 0.1 mM NaF, 0.2 mM phenylmethylsulfonyl fluoride (PMSF), and 0.1 mM sodium orthovanadate], centrifuged, and lysates stored at −70° C. Five microliters of CDK:cyclin lysate were mixed with test compounds in 40 μl of kinase buffer (200 mM Tris-HCl, pH 8.0, 100 mM MgCl2, 10 mM EGTA) and incubated at 30° C. for 30 min. About 400 ng of purified GST-Rb fusion protein and 5 μCi of γ-[^32P]ATP were added to the mixture and incubated at 30° C. for 15 min. Reactions were stopped by the addition of 250 μl of IP buffer (50 mM Tris-HCl, pH 8.0; 150 mM NaCl, 0.5% NP-40) and 15 μl glutathione sepharose. After one hour incubation at 4° C., sepharose beads were washed four times with IP buffer, mixed with 18 μl of 2×sample buffer and electrophoresed on an 8% Tris-glycine gel (Novex, San Diego, Calif.) at 125 V for 90 min. Equal recovery of GST-Rb fusion protein was confirmed by Coomassie blue staining prior to autoradiography.
These compounds were assessed for CDK4:cylin D kinase inhibitory activity using baculovirus-expressed human CDK4 and cyclin D1, and a GST-Rb fusion protein as substrate.

[2] = molecular target: T1, CDK2:cyclin E (Homo sapiens, UniProt P24941); assay: In vitro kinase assay, CDK2:cyclin E; assay type: biochemical; conditions: for Ratio CDK2/E:CDK4: IC50 ratio, CDK4 as denominator
T1 construct: made in house; host or cells: Sf9 insect cells, baculovirus; unpurified lysate
Description: (§1) Characterization of 3-ATA. To examine the specificity of 3-ATA inhibitory activity for CDK4:cyclin D1 kinase, we performed in vitro kinase assays using baculovirus-expressed human CDC2:cyclin A, CDK2:cyclin A, and CDK2:cyclin E complexes.

[3] = molecular target: T2, CDC2:cyclin A (Homo sapiens, UniProt P06493); assay: In vitro kinase assay, CDC2:cyclin A; assay type: biochemical; conditions: for Ratio CDC2A:CDK4: (IC50 CDC2)/(IC50 CDK4)
T2 construct: made in house; host or cells: Sf9 insect cells, baculovirus; unpurified lysate
Description: as §1

[4] = molecular target: T3, CDK2:cyclin A (Homo sapiens, UniProt P24941); assay: In vitro kinase assay, CDK2:cyclin A; assay type: biochemical; conditions: for Ratio CDK2/A:CDK4: IC50 ratio, CDK4 as denominator
T3 construct: made in house; host or cells: Sf9 insect cells, baculovirus; unpurified lysate
Description: as §1

[5] = molecular target: T4, CDK4 (Homo sapiens, UniProt P11802); assay: CDK4 binding assay (GST-p16 binding to CDK4)
T4 construct: made in house; host or cells: CDK4 and cyclin D1: Sf9 cells, baculovirus, [35S]methionine-labelled cleared lysate; GST-p16: E. coli DH5α
T4 sequence (P11802 whole entry): as the sequence (P11802 whole entry) above
Description: CDK4 binding assay. Sf9 cells (1×10^7) were co-infected with baculovirus containing a cloned human CDK4 gene and/or a cyclin D1 gene in 12.5 ml of Grace's insect medium (Paragon, Baltimore, Md.) containing 10% FBS. After 40 h, cells were washed and placed in 5 ml of methionine-free medium containing 200 μCi/ml of [^35S]methionine (1000 Ci/mmole) for 4 h, followed by lysis in 250 μl. Cleared cell lysate (10 μl) was incubated with 400 ng of wildtype or mutant GST-p16 fusion proteins using the same conditions as the in vitro kinase assay. […] The gel was stained using Coomassie blue, dried, and autoradiography was performed. […] To test the effect of compounds on p16 binding to CDK4, 100 μM of each compound was incubated with CDK4:cyclin D1 lysate for 30 min prior to adding GST-p16 fusion protein.

pIC50 [2]: 4.10
Ratio CDK2/E:CDK4 [2]: 11.8
Ratio CDK2/E:CDK4 ([2]; listed as 3-ATA): at least nine-fold higher
pIC50 [3]: 4.22
Ratio CDC2A:CDK4 [3]: 8.8
Ratio CDC2A:CDK4 ([3]; listed as 3-ATA): at least nine-fold higher
pIC50 [4]: < 4.00
Ratio CDK2/A:CDK4 [4]: >14.7
Ratio CDK2/A:CDK4 ([4]; listed as 3-ATA): at least nine-fold higher
Decrease of binding of CDK4 to normal p16 ([5]; 100 μM compound): 70%
pIC50 [1]: 5.17
Effect of exogenous ATP on inhibitory activity in CDK4 kinase assay ([1]; exogenous ATP 0 to 600 μM): did not alter the inhibitory activity
SMILES: Nc1ccc2c(=S)c3ccccc3[nH]c2c1 [Compound 3, 3-Amino-10H-acridine-9-thione]

pIC50 [2]: < 4.00
Ratio CDK2/E:CDK4 [2]: >45
pIC50 [3]: < 4.00
Ratio CDC2A:CDK4 [3]: >45
pIC50 [4]: < 4.00
Ratio CDK2/A:CDK4 [4]: >45
Inhibition of p16INK4A binding to CDK4 ([5]; 100 μM of each compound): did not inhibit
pIC50 [1]: 5.66
SMILES: COc1ccc(OC)c2c(=S)c3ccccc3[nH]c12 [Compound 4, 1,4-Dimethoxy-10H-acridine-9-thione]
CDK2 kinase inhibitory activity (CDK2:cyclin E) ([2]; concentrations up to 100 μM): no CDC2 or CDK2 kinase inhibitory activity
CDC2 kinase inhibitory activity ([3]; concentrations up to 100 μM): no CDC2 or CDK2 kinase inhibitory activity
CDK2 kinase inhibitory activity (CDK2:cyclin A) ([4]; concentrations up to 100 μM): no CDC2 or CDK2 kinase inhibitory activity
CDK4 kinase inhibitory potency compared with parent compounds [1]: more potent CDK4 kinase inhibitors than the parent compounds

pIC50 [2]: < 4.00
Ratio CDK2/E:CDK4 [2]: >91
pIC50 [3]: 4.15
pIC50 [4]: < 4.00
Ratio CDK2/A:CDK4 [4]: >91
pIC50 [1]: 5.96
SMILES: O=C(CNc1ccc2c(=S)c3ccccc3[nH]c2c1)Nc1ccccc1-c1ccccc1NC(=O)CNc1ccc2c(=S)c3ccccc3[nH]c2c1 [Compound 5, 2,2′-Biphenyldiamine, bis[N,N′-[3-(amidonmethylamino)-10H-acridine-9-thione]]]
CDK4 kinase inhibitory potency compared with parent compounds [1]: more potent CDK4 kinase inhibitors than the parent compounds

pIC50 [2]: < 4.00
pIC50 [3]: < 4.00
pIC50 [4]: < 4.00
pIC50 [1]: 5.30
SMILES: O=S1(=O)NN=C(NCc2ccc(F)cc2)c2ccccc21 [Compound 6, 4-(4-Fluorobenzylamino)-1,2,3-benzothiadiazine-1,1-dioxide]

The next lines start with the compound.

SMILES: CCC/C=C/C=C/C(=O)O[C@H]1/C(=C/C(=O)OC)C[C@H]2C[C@H]([C@@H](C)O)OC(=O)C[C@H](O)C[C@@H]3C[C@H](OC(C)=O)C(C)(C)[C@](O)(C[C@@H]4C/C(=C/C(=O)OC)C[C@H](/C=C/C(C)(C)[C@]1(O)O2)O4)O3 [Bryostatin 1, reference compound]
Inhibition of GST-Rb phosphorylation by CDK4:cyclin D1 ([1]; concentrations up to 100 μM): no inhibitory activity

SMILES: O=S1(=O)NNC(=NCc2ccc(Cl)c(Cl)c2)c2ccccc21 [NSC 645788]
pIC50 ([1]; read-out: IC50 value CDK4/D1): 4.77

SMILES: C[C@@H]1[C@]2(O[C@H]3C=C4[C@@H]5CC[C@H]6Cc7nc8c(nc7C[C@]6(C)[C@H]5C[C@@H](O)[C@]4(C)[C@]31O)C[C@@H]1CC[C@H]3C4=CC[C@@H]5[C@H](C)[C@@]6(OC[C@]45C(=O)C[C@@H]3[C@@]1(C)C8)OC(C)(C)C[C@H]6O)O[C@](C)(CO)C[C@H]2O [cephalostatin 1, reference compound]
pIC50 ([1]; read-out: IC50 value CDK4/D1): 4.70
